PMC9738727, “Purification and Characterization of Novel Anti-MRSA Peptides Produced by Brevibacillus sp. SPR-20” (Molecules, 2022)
Ends that are not written are not given here.

What was measured:
[1] = test system: MRSA isolate 2468; assay: Killing kinetics; format: cell-based, Staphylococcus aureus; settings: for killing half-time / rate constant of cell death within 24 h: linear regression
Procedure: (§1) S. aureus TISTR 517 and MRSA isolate 2468 were cultured in CAMHB and standardized to obtain the cell number of 5 × 10^5 CFU/mL for initial treatment. […] The reactions were incubated at 37 °C, and then the total volume was spread on MH agar at specific time intervals (0–24 h). The plates were incubated at 37 °C for 24 h before colony count. […] The rate constant of cell death within 24 h and the killing half-time were calculated based on slope and linear regression relationship, respectively. Each experiment was performed in triplicate in 96-well plates. Significant differences (p-value < 0.05) were analyzed by two-way ANOVA and post hoc Tukey’s test for multiple comparisons between treated and non-treated samples.

[2] = test system: S. aureus TISTR 517; assay: Killing kinetics; format: cell-based, Staphylococcus aureus; settings: for killing half-time / rate constant of cell death within 24 h: linear regression; for time of eradication effect: strain not named in the sentence (tested bacteria)
Procedure: as §1

[3] = test system: MRSA isolate 2468; assay: Cell lysis (OD 625 nm), leakage of genetic materials (A260) and viable count; format: cell-based, Staphylococcus aureus; settings: for cell lysis (OD 625 nm reduction): within 1 h, PBS pH 7.4 + 4% CAMHB, mean ± SD, triplicate
Procedure: (§2) The lysis of bacterial cells was monitored by measuring the OD reduction at 625 nm, whereas the leakage of genetic material was evaluated by measuring the absorbance at 260 nm. Briefly, the bacterial colonies were collected from MH agar and then washed with PBS pH 7.4 three times. The OD at 625 nm of the washed cells was adjusted to 0.35 with PBS pH 7.4 supplemented with an incomplete medium (4% CAMHB) before the cells were transferred to a 96-well plate (100 μL/well). […] For each treatment condition at different time intervals, the reduction in OD at 625 nm was determined, and the supernatant of the treated samples was collected to measure the absorbance at 260 nm. The experiment was performed in triplicate, and the results were expressed as mean ± SD. Two-way ANOVA and post hoc Tukey’s test (p-value < 0.05) were used to determine the significance of differences between treated and non-treated samples.

[4] = test system: S. aureus TISTR 517; assay: as above; format: cell-based, Staphylococcus aureus
Procedure: as §2

[5] = test system: S. aureus TISTR 517; assay: Proteolytic enzyme stability, remaining activity by agar well diffusion; format: in vitro ADME, Staphylococcus aureus; settings: proteinase K, trypsin, α-chymotrypsin, both test strains
Procedure: (§3) The antimicrobial activity was measured by an agar well diffusion test with some modified methods. In brief, single colonies of the tested strains were suspended in 0.85% NaCl, and then the OD at 625 nm was adjusted to 0.1. The cell suspensions were spread on MH agar, and the tested samples (100 μL) were introduced into each well before incubation at 37 °C for 24 h. Each experiment was performed in three independent replicates, and the inhibition zone was measured and expressed as mean ± SD.
The stability of the anti-MRSA peptide against several conditions was studied. […] The sensitivity of the peptide sample to proteolytic enzymes was investigated by incubating the sample with proteinase K, trypsin, and α-chymotrypsin (1 mg/mL) for 1 h. Surfactant compatibility of the substance was examined by incubating the sample with 1% SDS and 1% Triton X-100 for 1 h (AppliChem GmbH, Darmstadt, Germany). The acid and base hydrolysis property of the substance was assessed by pH adjustment to 2–14 for 1 h before the samples were neutralized to pH 7. […] The stability profiles were presented as the percentage of activity relative to the untreated condition (mean ± SD), and significant difference was determined by the Student’s t-test at a p-value < 0.05.

[6] = test system: MRSA isolate 2468; assay: Thermal, surfactant and pH stability, remaining activity by agar well diffusion; format: physicochemical, Staphylococcus aureus; settings: P1 15 μg/mL, vancomycin 300 μg/mL, mean ± SD, n=3
Procedure: as §3
(§4) The stability of the anti-MRSA peptide against several conditions was studied. […] The sensitivity of the peptide sample to proteolytic enzymes was investigated by incubating the sample with proteinase K, trypsin, and α-chymotrypsin (1 mg/mL) for 1 h. Surfactant compatibility of the substance was examined by incubating the sample with 1% SDS and 1% Triton X-100 for 1 h (AppliChem GmbH, Darmstadt, Germany). The acid and base hydrolysis property of the substance was assessed by pH adjustment to 2–14 for 1 h before the samples were neutralized to pH 7. After all treatments, the antimicrobial assay by agar well diffusion against S. aureus TISTR 517 and MRSA isolate 2468 was performed in three independent experiments. The stability profiles were presented as the percentage of activity relative to the untreated condition (mean ± SD), and significant difference was determined by the Student’s t-test at a p-value < 0.05.

[7] = test system: S. aureus TISTR 517; assay: as above; format: physicochemical, Staphylococcus aureus; settings: for % Remaining Activity: P1 15 μg/mL, vancomycin 300 μg/mL, mean ± SD, n=3
Procedure: as §3, §4

[8] = test system: MRSA isolate 2468; assay: microbe, parasite or virus in culture; format: cell-based, Staphylococcus aureus; settings: P1 at 15 µg/mL, from vancomycin standard curve
Procedure: as §3
(§5) The agar well diffusion test was performed in triplicate for potency determination, using S. aureus TISTR 517 and MRSA isolate 2468 as the tested bacteria. […] The remaining standard and sample solutions were transferred to the other 3 wells. The plates were incubated at 37 °C for 18 h.

[9] = test system: S. aureus TISTR 517; assay: microbe, parasite or virus in culture; format: cell-based, Staphylococcus aureus; settings: P1 at 15 µg/mL, from vancomycin standard curve
Procedure: as §3, §5

[10] = 60 °C, 1 h, % of untreated sample
[11] = 80 °C, 1 h, % of untreated sample
[12] = 100 °C, 1 h, % of untreated sample
[13] = […], 15 psi, 15 min (autoclave), % of untreated sample
[14] = pH 2, 1 h, then neutralized to pH 7
[15] = pH 4, 1 h, then neutralized to pH 7
[16] = pH 5, 1 h, then neutralized to pH 7
[17] = pH 6, 1 h, then neutralized to pH 7
[18] = pH 8, 1 h, then neutralized to pH 7
[19] = pH 9, 1 h, then neutralized to pH 7
[20] = pH 11, 1 h, then neutralized to pH 7
[21] = pH 12, 1 h, then neutralized to pH 7
[22] = pH 13, 1 h, then neutralized to pH 7
[23] = pH 14, 1 h, then neutralized to pH 7
[24] = sample + 1% SDS, 1 h, % of untreated sample
[25] = sample + 1% Triton X-100, 1 h, % of untreated sample

VVVNVLVKVLPPPVV [Peptide P1]
killing half-time ([1]; 1× MIC): 47.75 h | rate constant of cell death within 24 h ([1]; 1× MIC): -0.06 h⁻¹ | killing half-time ([1]; 2× MIC): 13.21 h | rate constant of cell death within 24 h ([1]; 2× MIC): -0.23 h⁻¹ | inhibition rate ([1]; 4× MIC, during 3–12 h): 0.32 h⁻¹ | killing half-time ([1]; 4× MIC, 95% CI 5.67 to 18.47): 9.78 h | rate constant of cell death within 24 h ([1]; 4× MIC, 95% CI −0.17 to −0.36): -0.27 h⁻¹ | inhibition rate ([1]; after 6 h of treatment, 1× MIC): 0.06 h⁻¹ | inhibition rate ([1]; after 6 h of treatment, 2× MIC): 0.24 h⁻¹ | reduction rate of viable cells ([1]; first 3 h): 0.10 h⁻¹ | killing half-time ([2]; 1× MIC): 25.36 h | rate constant of cell death within 24 h ([2]; 1× MIC): -0.11 h⁻¹ | killing half-time ([2]; 2× MIC): 11.08 h | rate constant of cell death within 24 h ([2]; 2× MIC): -0.26 h⁻¹ | time of eradication effect ([2]; 2× MIC): 24 h | reduction rate of viable cells ([2]; 3-24 h, 1× MIC): 0.12 h⁻¹ | reduction rate of viable cells ([2]; 3-24 h, 2× MIC): 0.23 h⁻¹ | reduction rate of viable cells ([2]; 3-24 h, 4× MIC): 0.31 h⁻¹ | killing half-time ([2]; 4× MIC, 95% CI 5.35 to 20.12): 9.80 h | rate constant of cell death within 24 h ([2]; 4× MIC, 95% CI −0.16 to −0.38): -0.27 h⁻¹ | time of eradication effect ([2]; 4× MIC): 18 h | reduction rate of viable cells ([2]; first 3 h, all peptide concentrations (1×, 2×, 4× MIC)): 0.14 h⁻¹ | increase of genetic content in the supernatant (A260) ([3]; 30 min, 1×-4× MIC): 1.15–1.47 times | inhibition by viable cell count ([3]; 24 h, 1× MIC): 34.46 ± 0.64% | increase of genetic release (A260) ([3]; 24 h, 1×-4× MIC): 1.81–2.07 times | inhibition by viable cell count ([3]; 24 h, 2× MIC): 64.47 ± 3.56% | inhibition by viable cell count ([3]; 24 h, 4× MIC): 96.13 ± 6.70% | cell lysis (OD 625 nm reduction) ([3]; 1× MIC): 12.68 ± 13.57% | cell lysis (OD 625 nm reduction) ([3]; 2× MIC): 26.13 ± 9.48% | cell lysis (OD 625 nm reduction) ([3]; 4× MIC): 20.75 ± 2.75% | increase of genetic content in the supernatant (A260) ([4]; 30 min, 1×-4× MIC): 1.09–1.60 times | inhibition by viable cell count ([4]; 24 h, 1× MIC): 8.60 ± 0.26% | cell lysis ([4]; 24 h, 1×-4× MIC): more than 39.67% | increase of genetic release (A260) ([4]; 24 h, 1×-4× MIC): 2.05–2.29 times | inhibition by viable cell count ([4]; 24 h, 2× MIC): 67.63 ± 1.96% | inhibition by viable cell count ([4]; 24 h, 4× MIC): 94.35 ± 9.78% | cells destroyed (OD 625 nm reduction) ([4]; first hour, 1× MIC, PBS pH 7.4 + 4% CAMHB, mean ± SD, triplicate): 21.08 ± 1.11% | activity when incubated with proteolytic enzymes [5]: more than 90% | % Remaining Activity [6, 10]: 100.00 ± 0.79% | % Remaining Activity [6, 11]: 99.08 ± 0.00% | % Remaining Activity [6, 12]: 98.62 ± 0.79% | % Remaining Activity [6, 13]: 98.62 ± 0.79% | % Remaining Activity [6, 14]: 97.57 ± 1.46% | % Remaining Activity [6, 15]: 99.03 ± 1.46% | % Remaining Activity [6, 16]: 97.09 ± 1.68% | % Remaining Activity [6, 17]: 97.57 ± 3.85% | % Remaining Activity ([6]; pH 7, 1 h): 97.57 ± 5.25% | % Remaining Activity [6, 18]: 97.09 ± 2.22% | % Remaining Activity [6, 19]: 98.03 ± 1.71% | % Remaining Activity [6, 20]: 98.03 ± 2.26% | % Remaining Activity [6, 21]: 97.54 ± 0.00% | % Remaining Activity [6, 22]: 99.51 ± 0.85% | % Remaining Activity [6, 23]: 100.00 ± 3.08% | % Remaining Activity [6, 24]: 117.13 ± 1.60 % | % Remaining Activity [6, 25]: 115.74 ± 0.80 % | % Remaining Activity [7, 10]: 100.49 ± 0.84% | % Remaining Activity [7, 11]: 100.00 ± 0.84% | % Remaining Activity [7, 12]: 100.00 ± 0.84% | % Remaining Activity [7, 13]: 98.54 ± 1.69% | % Remaining Activity [7, 14]: 98.48 ± 3.17% | % Remaining Activity [7, 15]: 97.97 ± 5.77% | % Remaining Activity [7, 16]: 97.46 ± 2.64% | % Remaining Activity [7, 17]: 97.97 ± 3.17% | % Remaining Activity ([7]; pH 7, 1 h): 97.97 ± 1.76% | % Remaining Activity [7, 18]: 102.54 ± 3.17% | % Remaining Activity [7, 19]: 100.00 ± 1.49% | % Remaining Activity [7, 20]: 98.01 ± 2.28% | % Remaining Activity [7, 21]: 96.52 ± 2.28% | % Remaining Activity [7, 22]: 98.51 ± 1.49% | % Remaining Activity [7, 23]: 101.00 ± 1.72% | % Remaining Activity [7, 24]: 114.49 ± 3.53 % | % Remaining Activity [7, 25]: 125.23 ± 2.92 % | activity remaining under several stress conditions ([7]; text summary of Table 6, both test strains): over 90% | vancomycin concentration of equivalent potency [8]: 85.97 to 109.05 µg/mL | vancomycin concentration of equivalent potency [9]: 76.29 to 87.36 µg/mL
